Values quoted from earlier work in patent US20110206661A1, “TRIMETHOXYPHENYL INHIBITORS OF TYROSINE KINASE” (AUSPEX PHARMACEUTICALS, INC., priority 2010, published 2011).

Conditions: human plasma after oral administration of fostamatinib

COc1cc(Nc2ncc(F)c(Nc3ccc4c(n3)N(COP(=O)(O)O)C(=O)C(C)(C)O4)n2)cc(OC)c1OC [Fostamatinib, 6-[[5-fluoro-2-[(3,4,5-trimethoxyphenyl)amino]-4-pyrimidinyl]amino]-2,2-dimethyl-4-[(phosphonooxy)methyl]-2H-pyrido[3,2-b]-1,4-oxazin-3(4H)-one]
drug-related compound observed in human plasma: only small amounts
